# Patent US9487502B2, “Chemical compounds” (Syngenta Limited, priority 2013, dated 2016)
# Key:
# Format in all cases: in vivo
# [1] = system: Zea mays; assay: Pre-emergence herbicidal activity, ZEAMX; set-up: key: 5=total damage to plant; 0=no damage to plant; conditions: 1000 g/Ha, sprayed pre-emergence, evaluated after 13 days, scale 0-5
# Method in brief: (§1)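 Compounds are applied pre-emergence as an aqueous spray, formulated in 50:50 acetone/water containing 0.5% Tween 20, to pots sown one day earlier. Plants grow in a controlled glasshouse and are scored 13 days later for damage from 0 to 5.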
# [2] = system: Alopecurus myosuroides; assay: Pre-emergence herbicidal activity, ALOMY; set-up: key: 5=total damage to plant; 0=no damage to plant; conditions: 1000 g/Ha, sprayed pre-emergence, evaluated after 13 days, scale 0-5
# Method in brief: as §1
# [3] = system: Zea mays; assay: Post-emergence herbicidal activity, ZEAMX; conditions: 1000 g/Ha, sprayed post-emergence (8 days cultivation), evaluated after 13 days, scale 0-5
# Method in brief: (§2)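 Seeds were sown in standard soil and cultivated for 8 days under controlled glasshouse conditions. Seedlings were then sprayed with an aqueous solution of the formulated compound containing 0.5% Tween 20. Injury was rated after a further 13 days, where 5 indicated total damage.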
# [4] = system: Alopecurus myosuroides; assay: Post-emergence herbicidal activity, ALOMY; conditions: 1000 g/Ha, sprayed post-emergence (8 days cultivation), evaluated after 13 days, scale 0-5
# Method in brief: as §2
# [5] = system: Amaranthus retroflexus; assay: Pre-emergence herbicidal activity, AMARE; conditions: 1000 g/Ha, sprayed pre-emergence, evaluated after 13 days, scale 0-5
# Method in brief: as §1
# [6] = system: Echinochloa crus-galli; assay: Post-emergence herbicidal activity, ECHCG; set-up: key: 5=total damage to plant; 0=no damage to plant; conditions: 1000 g/Ha, sprayed post-emergence (8 days cultivation), evaluated after 13 days, scale 0-5
# Method in brief: as §2
# [7] = system: Setaria faberi; assay: Pre-emergence herbicidal activity, SETFA; set-up: key: 5=total damage to plant; 0=no damage to plant; conditions: 1000 g/Ha, sprayed pre-emergence, evaluated after 13 days, scale 0-5
# Method in brief: as §1
# [8] = system: Abutilon theophrasti; assay: Post-emergence herbicidal activity, ABUTH; conditions: 1000 g/Ha, sprayed post-emergence (8 days cultivation), evaluated after 13 days, scale 0-5
# Method in brief: as §2
# [9] = system: Echinochloa crus-galli; assay: Pre-emergence herbicidal activity, ECHCG; set-up: key: 5=total damage to plant; 0=no damage to plant; conditions: 1000 g/Ha, sprayed pre-emergence, evaluated after 13 days, scale 0-5
# Method in brief: as §1
# [10] = system: Setaria faberi; assay: Post-emergence herbicidal activity, SETFA; conditions: 1000 g/Ha, sprayed post-emergence (8 days cultivation), evaluated after 13 days, scale 0-5
# Method in brief: as §2
# [11] = system: Abutilon theophrasti; assay: Pre-emergence herbicidal activity, ABUTH; conditions: 1000 g/Ha, sprayed pre-emergence, evaluated after 13 days, scale 0-5
# Method in brief: as §1
# [12] = system: Amaranthus retroflexus; assay: Post-emergence herbicidal activity, AMARE; set-up: key: 5=total damage to plant; 0=no damage to plant; conditions: 1000 g/Ha, sprayed post-emergence (8 days cultivation), evaluated after 13 days, scale 0-5
# Method in brief: as §2
smiles,measurement,setting,value
CCOC1C(O)N(c2cc(C(C)(C)C)ncn2)C(=O)N1CC (stereo not drawn) [Example A27],"ZEAMX damage score, application pre-emergence",[1],0
same,"ALOMY damage score, application pre-emergence",[2],0
same,"ZEAMX damage score, application post-emergence",[3],2
same,"ALOMY damage score, application post-emergence",[4],1
same,"AMARE damage score, application pre-emergence",[5],1
same,"ECHCG damage score, application post-emergence",[6],0
same,"SETFA damage score, application pre-emergence",[7],0
same,"ABUTH damage score, application post-emergence",[8],4
same,"ECHCG damage score, application pre-emergence",[9],0
same,"SETFA damage score, application post-emergence",[10],3
same,"ABUTH damage score, application pre-emergence",[11],1
same,"AMARE damage score, application post-emergence",[12],0
